Source: patent US20100323894A1, “HERBICIDAL COMBINATION” (Bayer CropScience AG, priority 2007, published 2010)

Legend:
Polygonum convolvulus = experiment: Post-emergence action against weeds, greenhouse, visual scoring; assay type: in vivo; settings: scoring 11 days after application
Description: (§1) Seeds or rhizome pieces of monocotyledonous and dicotyledonous weeds were placed in sandy loam soil in plastic pots, covered with soil and cultivated in a greenhouse under good growth conditions. Three weeks after sowing, the test plants were treated at the 2- to 4-leaf stage. The compounds according to the invention, formulated as wettable powders or as emulsion concentrates, were sprayed onto the green parts of the plants in various dosages at a water application rate of 100 to 800 l/ha (converted). After the test plants had been left to stand in the greenhouse for 10 to 28 days under optimum growth conditions, the effect of the preparations was scored visually in comparison to untreated controls.
0%=no control 100%=complete control

Galium aparine = experiment: as above; assay type: in vivo; settings: scoring 11 days after application, 0=no control, 100=complete control
Description: as §1
0=no control 100=complete control

Q: With `Cc1nn(C)c(O)c1C(=O)c1ccc(C(F)(F)F)cc1S(C)(=O)=O` [Compound B1-6, pyrasulfotole] as the molecule, how does the “Polygonum convolvulus Control in %” value (Polygonum convolvulus; 25 g of ai/ha, 0%=no control, 100%=complete control) read?
A: Its value is 20%.

Q: With `CCOC(=O)COc1cc(-c2nn(C)c(OC(F)F)c2Cl)c(F)cc1Cl` [Compound B2-1, pyraflufen-ethyl] as the molecule, how does the “Galium aparine Control in %” value (Galium aparine; 2 g of ai/ha) read?
A: Its value is 23%.

Q: `CS(=O)(=O)c1cc(C(F)(F)F)ccc1C(=O)c1cnoc1C1CC1` [Compound B3-3, isoxaflutole] was tested. Which “Polygonum convolvulus Control in %” value (Polygonum convolvulus; 50 g of ai/ha, 0=no control, 100=complete control) did it give?
A: The value was 25%.

Q: With `COCc1cnc(C2=NC(C)(C(C)C)C(=O)N2)c(C(=O)O)c1` (centres unmarked) [Compound B4-2, imazamox] as the molecule, how does the “Galium aparine Control in %” value (Galium aparine; 10 g of ai/ha) read?
A: Its value is 75%.

Q: `CCN(C(=O)n1nnn(-c2ccccc2Cl)c1=O)C1CCCCC1` [Compound B8-1, fentrazamide] was tested. Which “Polygonum convolvulus Control in %” value (Polygonum convolvulus; 250 g of ai/ha, 0%=no control, 100%=complete control) did it give?
A: Its value is 20%.

Q: Which “Polygonum convolvulus Control in %” value (Polygonum convolvulus; 15 g of ai/ha, 0=no control, 100=complete control) does the source give for `CCc1cc(C)cc(CC)c1-c1c(OC(=O)C(C)(C)C)n2n(c1=O)CCOCC2` [Compound B9-1, pinoxaden] here?
A: The value was 20%.

Q: How did the “Polygonum convolvulus Control in %” value (Polygonum convolvulus; 2.5 g of ai/ha, 0%=no control, 100%=complete control) turn out when “sodium salt of 2-iodo-N-[(4-methoxy-6-methyl-1,3,5-triazin-2-yl)carbamoyl]benzenesulfonamide [Compound A-2]” was run?
A: Its value is 10%.

Q: What about the “Galium aparine Control in %” value (Galium aparine; 2.5 g of ai/ha) of the same molecule?
A: Its value is 0%.
